In patent US20050245465A1, “Compounds for treating Alzheimer's disease and for inhibiting beta-amyloid peptitde production” (priority 2004, published 2005):
“Also recorded” adds a separate entry of the source.

Legend:
[1] = tested on: Neuro2a cells expressing the human Swedish mutant form of APP; test: Aβ generation in Neuro2a-SW cells; type: cell-based, mouse; conditions: for levels of Aβ42 / production of Aβ42: Neuro2a-SW, also CHO cells expressing wild-type human APP
Source text: FIG. 16 depicts the effects of two major metabolites of ginsenosides, including 20(S)-protopanaxatriol (PPT) and 20(S)-protopanaxadiol (PPD) on Aβ42 generation. 20(S)-panaxatriol (PT) and 20(S)-panaxadiol (PD) are the artificial derivatives of PPT and PPPD, respectively.
Ginsenosides are metabolized by human intestinal bacteria after oral administration of ginseng extract (Kobayashi K., et al., Metabolism of ginsenoside by human intestinal bacteria [II] Ginseng Review 1994; 18: 10-14; Hasegawa H., et al., Main ginseng saponin metabolites formed by intestinal bacteria. Planta Med. 1996; 62: 453-457.). Therefore, the effects of two major metabolites of ginsenosides, including 20(S)-protopanaxatriol (PPT) and 20(S)-protopanaxadiol (PPD) on Aβ42 generation were tested. 20(S)-panaxatriol (PT) and 20(S)-panaxadiol (PD) are the artificial derivatives of PPT and PPPD, respectively.

[2] = tested on: CHO cells expressing human APP; test: Secreted Aβ40/Aβ42 ELISA in medium of CHO-APP cells; type: cell-based, Chinese hamster; design: key to Aβ42-lowering activity: Aβ42-lowering activity (“Yes”); no profound effects (“No”); non-determined (“ND”); Ginsenosides that affected cell viability are indicated as “Cytotoxic.”; conditions: for Aβ42-lowering activity: Tables 1-3; for inhibitory effects on Aβ40 and Aβ42 production: 8 hours of incubation, ginsenosides from white ginseng
Method: The CHO cells were treated with the indicated compounds (at 50 μg/ml) for 8 hrs. Aβ42 levels in the medium were measured by ELISA and normalized to intracellular full-length APP.
The potential effects of ginsenosides and their analogues in treating AD were examined. First, a number of ginsenosides were screened based on their effects on Aβ generation. The effects of various ginsenosides on Aβ (e.g., Aβ40 and Aβ42) production was initially accessed by incubating the Chinese hamster ovary (CHO) cells expressing human APP(CHO-APP cells) with each ginsenoside purified from unprocessed ginseng (known as “white ginseng”). These representative ginsenosides included Rb1, Rb2, Rc, Rd, Re, Re, Rg1 and Rg2 and differ in their side chains and sugar moieties.
After 8 hours of incubation, the media were collected and the levels of secreted Aβ40 and Aβ42 were determined by ELISA.
Steaming ginseng at high temperature gave rise to additional ginsenosides with enhanced pharmacological activity, including (20S)Rg3, Rk1 and Rg5 (22-25). Next, the effects of these heat-processing derived ginsenosides (e.g., (20S)Rg3, Rh1, Rh2, Rk1, Rg6, Rg5) on Aβ40 and Aβ42 generation were tested. […] In contrast, Aβ42 levels were not affected by (20R)Rg3, Rh1, and Rg6. Aβ40 levels were not changed by treatment with any of the ginsenosides tested. The potency of Aβ42-lowering activity was highest with Rk1 and (20S)Rg3. […] The secretion of Aβ40 was affected by treatment with Rk1 only at very high concentration (˜100 μM) and cell viability was not affected by treatment of Rk1 under these conditions (up to 100 μM, 8 hour treatment; data not shown). […] Overnight treatment with Rgk351, Rk1, and Rg5 also reduce Aβ42 production in CHO-APP cells (FIG. 12B). […] These studies provide a structure-activity relationship between the chemical structures of ginsenosides and Aβ42-lowering activity, further providing the basis for designing additional Aβ42-lowering analogues as well as for defining a class of compounds that harbor Aβ42-lowering activity.

CHO-APP/PS1 cells = test: Secreted Aβ40/Aβ42 ELISA in CHO-APP/PS1 cells; type: cell-based, Chinese hamster; conditions: 50 μM, 8 hrs
Method: FIG. 10 depicts the effects of native ginsenosides on Aβ42 production. CHO cells stably transfected with human APP695 together with either wild-type (A, CHO-APP/PS1 cells) or ΔE9 FAD mutant (B, CHO-APP/ΔE9PS1 cells) forms of PS1 were used. Cells were treated with the indicated compounds (at 50 μM) for 8 hrs. Levels of secreted Aβ40 and Aβ42 in the medium were determined by ELISA and normalized to intracellular full-length APP. In CHO-APP/PS1 cells, average Aβ amounts in control samples were 320 pM for Aβ40 and 79 pM for Aβ42. The relative levels of Aβ and Aβ42 were normalized to values obtained from non-treated and vehicle-treated cells and are shown as % to control+s.d.). One of three representative experiments are shown.
CHO-APP/PS1 (A) and CHO-APP/ΔE9PS1 (B) cells were treated with the indicated compounds at 50 μM for 8 hrs and the levels of secreted Aβ40 and Aβ42 were determined as described in FIG. 1. […] The PS1-ΔE9 FAD mutation diminished the Aβ42 response to Rk1 treatment (B).

γ-secretase [3] = test: Cell-free generation of intracellular domains (AICD, NICD, p75-ICD) in membrane fractions of 293 cells; type: biochemical; conditions: membrane fractions from 293 cells overexpressing APP, Notch-ΔE or p75-ΔE
Method: Membrane fractions isolated from 293 cells overexpressing either APP (A), Notch-ΔE (B) or p75-ΔE (C) and incubated in the presence of indicated compounds: Compound E (CpdE, general γ-secretase inhibitor), Rgk351, Rk1 and sulindac sulfide (SS).
Since the effect of Rk1 was rather selective to Aβ42 (but not Aβ40) in a cell-based assay, the question of whether Rk1 affects other γ-secretase-mediated cleavage events, including the generation of AICD resulted from a transmembrane cleavage of APP distal from either Aβ40 or Aβ42 site, and γ-secretase-mediated intramembrane cleavage of Notch1 or p75 neurotrophin receptor (p75NTR) to yield Notch1 or p75NTR intracellular domains (NICD or p75-ICD, respectively) was tested. The cell-free generation of AICD, NICD and p75-ICD was not affected by incubation with Rgk351 or Rk1 (FIG. 5).

γ-secretase [4] = test: Cell-free γ-secretase assay (CHAPSO-solubilized membrane fractions, Aβ ELISA); type: biochemical; conditions: cell-free γ-secretase assay, partially purified γ-secretase complex; 100 μM
Method: (A) CHAPSO-solubilized membrane fractions were incubated with recombinant γ-secretase substrates together with the indicated compounds (at 100 μM) and the levels of Aβ42 and Aβ40 were determined by ELISA as described (27-29). (B) Dose-response of Aβ40 and Aβ42-lowering activity of Rk1 and (20S)Rg3 in a cell-free γ-secretase assay.
Next, the inhibitory effects of Rk1 and (20S)Rg3 on Aβ generation in an in vitro γ-secretase assay was studied. […] In contrast, naproxen, an NSAID without Aβ42-lowering activity, had no effects on Aβ42 production (FIG. 15A).

For CC(C)=CCCC(C)(O)[C@H]1CC[C@]2(C)[C@@H]1[C@H](O)C[C@@H]1[C@@]3(C)CC[C@H](O)C(C)(C)[C@@H]3CC[C@]12C (stereo in doubt) [PPD, Protopanaxadiol], the “inhibitory effects on Aβ40 or Aβ42 generation” value [1] was “did not confer any inhibitory effects” and the Aβ42-lowering activity [2] was “No”.
For CC(C)=CCC[C@@](C)(O)[C@H]1CC[C@]2(C)[C@@H]1[C@H](O)C[C@@H]1[C@@]3(C)CC[C@H](O[C@@H]4O[C@H](CO)[C@@H](O)[C@H](O)[C@H]4O[C@@H]4O[C@H](CO)[C@@H](O)[C@H](O)[C@H]4O)C(C)(C)[C@@H]3CC[C@]12C [(20R)Rg3], the “generation of Aβ42 (Aβ42 levels in the medium, ELISA, normalized to intracellular full-length APP)” value ([2]; CHO cells stably transfected with human APP695, 50 μg/ml, 8 hrs) was “reduce”, the Aβ42-lowering activity [2] was “Yes” and the “secretion of Aβ42 (initial screening)” value ([2]; heat-processing derived ginsenosides) was “not affected”. The “potency of Aβ42-reducing activity (order)” value (CHO-APP/PS1 cells) was “Rk1>/=(20S)Rg3>Rg5>(20R)Rg3”.
For C[C@H](NC(=O)Cc1cc(F)cc(F)c1)C(=O)N[C@H]1N=C(c2ccccc2)c2ccccc2N(C)C1=O [Compound E], the “cell-free generation of AICD, NICD and p75-ICD” value (shortened to “cell-free generation of AICD”) (γ-secretase [3]) was “Very low amounts; also recorded: efficiently inhibited”.
In the case of CC1(C)CCC[C@](C)([C@H]2CC[C@]3(C)[C@@H]2[C@H](O)C[C@@H]2[C@@]4(C)CC[C@H](O)C(C)(C)[C@@H]4CC[C@]23C)O1 [PD, 20(S)-panaxadiol], the “inhibitory effects on Aβ40 or Aβ42 generation” value [1] is reported as “did not confer any inhibitory effects”.
In the case of CC(C)=CCC[C@](C)(O)[C@H]1CC[C@]2(C)[C@@H]1[C@H](O)C[C@@H]1[C@@]3(C)CC[C@H](O)C(C)(C)[C@@H]3[C@@H](O)C[C@]12C [PPT, Protopanaxatiol], the “levels of Aβ42” value [1] is reported as “without affecting”, the “production of Aβ42” value [1] is reported as “reduced” and the Aβ42-lowering activity [2] is reported as “Yes”.
In the case of CC1(C)CCC[C@](C)([C@H]2CC[C@]3(C)[C@@H]2[C@H](O)C[C@@H]2[C@@]4(C)CC[C@H](O)C(C)(C)[C@@H]4[C@@H](O)C[C@]23C)O1 [PT, 20(S)-panaxatriol], the “levels of Aβ42” value [1] is reported as “without affecting” and the “production of Aβ42” value [1] is reported as “reduced”.
With CC(C)=CCC[C@](C)(O[C@@H]1O[C@H](CO[C@@H]2O[C@H](CO)[C@@H](O)[C@H](O)[C@H]2O)[C@@H](O)[C@H](O)[C@H]1O)[C@H]1CC[C@]2(C)[C@@H]1[C@H](O)C[C@@H]1[C@@]3(C)CC[C@H](O[C@@H]4O[C@H](CO)[C@@H](O)[C@H](O)[C@H]4O[C@@H]4O[C@H](CO)[C@@H](O)[C@H](O)[C@H]4O)C(C)(C)[C@@H]3CC[C@]12C [Rb1] the “inhibitory effects on Aβ40 and Aβ42 production” value [2] was “None” and the Aβ42-lowering activity [2] was “No”.
With CC(C)=CCC[C@](C)(O[C@@H]1O[C@H](CO[C@@H]2OC[C@H](O)[C@H](O)[C@H]2O)[C@@H](O)[C@H](O)[C@H]1O)[C@H]1CC[C@]2(C)[C@@H]1[C@H](O)C[C@@H]1[C@@]3(C)CC[C@H](O[C@@H]4O[C@H](CO)[C@@H](O)[C@H](O)[C@H]4O[C@@H]4O[C@H](CO)[C@@H](O)[C@H](O)[C@H]4O)C(C)(C)[C@@H]3CC[C@]12C [Rb2] the “inhibitory effects on Aβ40 and Aβ42 production” value [2] was “None” and the Aβ42-lowering activity [2] was “No”.
CC(C)=CCC[C@](C)(O[C@@H]1O[C@H](CO[C@@H]2OC[C@@H](O)[C@H](O)[C@H]2O)[C@@H](O)[C@H](O)[C@H]1O)[C@H]1CC[C@]2(C)[C@@H]1[C@H](O)C[C@@H]1[C@@]3(C)CC[C@H](O[C@@H]4O[C@H](CO)[C@@H](O)[C@H](O)[C@H]4O[C@@H]4O[C@H](CO)[C@@H](O)[C@H](O)[C@H]4O)C(C)(C)[C@@H]3CC[C@]12C [Rb3] was tested, and the Aβ42-lowering activity [2] was “No”.
CC(C)=CCC[C@](C)(O[C@@H]1O[C@H](CO)[C@@H](O)[C@H](O)[C@H]1O)[C@H]1CC[C@]2(C)[C@@H]1[C@H](O)C[C@@H]1[C@@]3(C)CC[C@H](O)C(C)(C)[C@@H]3[C@@H](O[C@@H]3O[C@H](CO)[C@@H](O)[C@H](O)[C@H]3O)C[C@]12C [Rg1] was tested, and the “inhibitory effects on Aβ40 and Aβ42 production” value [2] was “None”, the Aβ42-lowering activity [2] was “No” and the “production of Aβ42 in cells (summary statement)” value ([2]; mammalian cells, in vitro) was “no amyloid reducing activity in vitro”.
With C=C(CCC=C(C)C)[C@H]1CC[C@]2(C)[C@@H]1[C@H](O)C[C@@H]1[C@@]3(C)CC[C@H](O)C(C)(C)[C@@H]3[C@@H](O[C@@H]3O[C@H](CO)[C@@H](O)[C@H](O)[C@H]3O)C[C@]12C [Rk3] the Aβ42-lowering activity [2] was “No”.
In the case of COc1ccc2cc([C@H](C)C(=O)O)ccc2c1 [naproxen, reference compound], the “Aβ42 generation in vitro” value (γ-secretase [4]) is reported as “no effects”.
In the case of CSc1ccc(/C=C2/C(C)=C(CC(=O)O)c3cc(F)ccc32)cc1 [sulindac sulfide, reference compound], the “Aβ42 generation in vitro” value (γ-secretase [4]) is reported as “potently inhibited”, the “cell-free generation of AICD” value (γ-secretase [3]) is reported as “abundantly produced” and the “cell-free generation of AICD” value (γ-secretase [3]; listed as sulinac sulfide) is reported as “did not affect”. The Aβ40 production ([2]; overnight treatment, CHO-APP cells) was “slightly affected”.
